From PubChem BioAssay (NCI)
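Protocol summary: plate cells (96-well), add compound at 5 concentrations, incubate 48 h, interpolate endpoints linearly. GI50 = concentration required for 50% inhibition of growth. TGI denotes the concentration required for complete inhibition of growth.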

Experiments:
Assay in all cases: NCI-60 cell line screen, 48 h
[1] = system: M14 melanoma
[2] = system: SF-539 CNS
[3] = system: SR leukemia
[4] = system: LOX IMVI melanoma
[5] = system: UACC-62 melanoma
[6] = system: IGROV1 ovarian
[7] = system: NCI-H460 lung
[8] = system: 786-0 renal
[9] = system: HCT-116 colon
[10] = system: MDA-MB-231 breast

Compound | GI50 [1] [nM] | TGI [1] [µM] | GI50 [2] [nM] | TGI [2] [µM] | GI50 [3] [nM] | TGI [3] [µM] | GI50 [4] [nM] | TGI [4] [µM] | GI50 [5] [nM] | TGI [5] [µM] | GI50 [6] [nM] | TGI [6] [µM] | GI50 [7] [nM] | TGI [7] [µM] | GI50 [8] [nM] | TGI [8] [µM] | GI50 [9] [nM] | TGI [9] [µM] | GI50 [10] [nM] | TGI [10] [µM]
C[As](C)SC1OCC(O)C(O)C1O (centres undefined) | 128 | 0.925 | 111 | 0.595 | 25.5 | 0.0849 | 199 | 0.566 | 195 | 0.556 | 805 | 6.71 | 1100 | 7.52 | 70.8 | 0.545 | 244 | 1.37 | 224 | 0.63
COc1ccccc1NC(=O)C1=C(C)NC(C)=C(C(=O)Nc2ccccc2OC)C1c1ccco1 | – | 31.9 | – | 20.7 | – | 15.3 | – | > 100 | – | 22.9 | – | > 100 | – | > 43.9 | – | > 77 | – | 37.4 | – | > 100
NC1=NCN(C2OC(CO)C(O)C2O)C(=O)N1 (centres undefined) | – | 405 | – | 342 | – | 278 | – | 135 | – | 241 | – | 299 | – | 294 | – | 2050 | – | 143 | – | 568
COc1ccc(-c2c(N)noc2-c2cc(OC)c3c(c2)OCCO3)cc1 | < 10 | 0.048 | 12.1 | 1.28 | < 10 | > 52.4 | 45.1 | 24 | < 10 | 28.2 | 17.7 | > 73.3 | < 10 | 11.9 | < 12 | – | < 10 | 6.37 | 85.1 | > 43.3
